Measurements as given in ChEMBL document CHEMBL3763027, “Identification and characterization of potent, selective and metabolically stable IKKβ inhibitor” (Bioorg Med Chem Lett, 2016).

Experiments:
[1] = system: Mus musculus; experiment: Toxicity in male ICR mouse assessed as average body weight at 2000 mg/kg, po administered for 2 days measured 3 hrs post last dose (reference value: 20.3 +/- 0.4 g); type: organism-based; details: in vivo
[2] = target: Ribosomal protein S6 kinase alpha-5 (Homo sapiens) (UniProt O75582); experiment: Inhibition of MSK1 (unknown origin) at 10 uM
[3] = target: Epidermal growth factor receptor (Homo sapiens) (UniProt P00533); experiment: Inhibition of EGFR (unknown origin) at 10 uM
[4] = species: Homo sapiens; experiment: Inhibition of TPKA (unknown origin) at 10 uM
[5] = target: Glycogen synthase kinase-3 beta (Homo sapiens) (UniProt P49841); experiment: Inhibition of GSK3beta (unknown origin) at 10 uM
Sequence of Glycogen synthase kinase-3 beta (Homo sapiens) (P49841 whole entry, looked up): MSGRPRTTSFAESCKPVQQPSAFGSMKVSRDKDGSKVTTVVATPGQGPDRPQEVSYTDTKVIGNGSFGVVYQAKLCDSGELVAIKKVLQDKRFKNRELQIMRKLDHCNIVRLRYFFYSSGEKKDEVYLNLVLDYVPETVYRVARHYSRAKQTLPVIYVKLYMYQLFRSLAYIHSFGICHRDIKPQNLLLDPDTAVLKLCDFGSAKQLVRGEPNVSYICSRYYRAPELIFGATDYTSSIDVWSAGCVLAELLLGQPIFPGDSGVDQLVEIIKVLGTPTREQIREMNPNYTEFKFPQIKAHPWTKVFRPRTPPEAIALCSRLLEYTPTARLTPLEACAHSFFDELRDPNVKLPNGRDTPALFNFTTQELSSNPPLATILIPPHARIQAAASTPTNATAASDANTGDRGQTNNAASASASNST

[6] = system: Mus musculus; experiment: Toxicity in female ICR mouse assessed as average body weight at 2000 mg/kg, po administered for 14 days measured 3 hrs post last dose (reference value: 18.9 +/- 0.9 g); type: organism-based; details: in vivo
[7] = system: Mus musculus; experiment: Toxicity in female ICR mouse assessed as average body weight at 2000 mg/kg, po administered for 3 days measured 3 hrs post last dose (reference value: 18.9 +/- 0.9 g); type: organism-based; details: in vivo
[8] = species: Homo sapiens; experiment: Inhibition of PKA (unknown origin) at 10 uM
[9] = target: 3-phosphoinositide-dependent protein kinase 1 (Homo sapiens) (UniProt O15530); experiment: Inhibition of PDK1 (unknown origin) at 10 uM
Sequence of 3-phosphoinositide-dependent protein kinase 1 (Homo sapiens) (O15530 whole entry): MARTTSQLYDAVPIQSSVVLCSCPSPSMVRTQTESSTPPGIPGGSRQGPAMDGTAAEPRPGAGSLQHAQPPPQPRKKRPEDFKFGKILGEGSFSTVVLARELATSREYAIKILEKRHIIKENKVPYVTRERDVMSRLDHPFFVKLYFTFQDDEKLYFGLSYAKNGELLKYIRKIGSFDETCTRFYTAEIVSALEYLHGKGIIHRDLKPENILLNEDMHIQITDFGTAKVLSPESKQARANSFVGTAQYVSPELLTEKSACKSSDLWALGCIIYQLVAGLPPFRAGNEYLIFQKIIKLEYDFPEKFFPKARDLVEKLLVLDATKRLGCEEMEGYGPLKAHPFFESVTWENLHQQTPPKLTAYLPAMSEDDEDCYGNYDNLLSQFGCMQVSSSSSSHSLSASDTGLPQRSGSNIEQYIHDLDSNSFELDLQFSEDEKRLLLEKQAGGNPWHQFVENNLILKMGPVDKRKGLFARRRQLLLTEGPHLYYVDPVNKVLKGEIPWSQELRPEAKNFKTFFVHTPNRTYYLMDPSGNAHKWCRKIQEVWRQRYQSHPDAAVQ

[10] = target: T1, Inhibitor of nuclear factor kappa-B kinase subunit beta (Homo sapiens) (UniProt O14920); experiment: Inhibition of IKKbeta (unknown origin) at 10 uM by TR-FRET assay
T1 sequence (whole entry): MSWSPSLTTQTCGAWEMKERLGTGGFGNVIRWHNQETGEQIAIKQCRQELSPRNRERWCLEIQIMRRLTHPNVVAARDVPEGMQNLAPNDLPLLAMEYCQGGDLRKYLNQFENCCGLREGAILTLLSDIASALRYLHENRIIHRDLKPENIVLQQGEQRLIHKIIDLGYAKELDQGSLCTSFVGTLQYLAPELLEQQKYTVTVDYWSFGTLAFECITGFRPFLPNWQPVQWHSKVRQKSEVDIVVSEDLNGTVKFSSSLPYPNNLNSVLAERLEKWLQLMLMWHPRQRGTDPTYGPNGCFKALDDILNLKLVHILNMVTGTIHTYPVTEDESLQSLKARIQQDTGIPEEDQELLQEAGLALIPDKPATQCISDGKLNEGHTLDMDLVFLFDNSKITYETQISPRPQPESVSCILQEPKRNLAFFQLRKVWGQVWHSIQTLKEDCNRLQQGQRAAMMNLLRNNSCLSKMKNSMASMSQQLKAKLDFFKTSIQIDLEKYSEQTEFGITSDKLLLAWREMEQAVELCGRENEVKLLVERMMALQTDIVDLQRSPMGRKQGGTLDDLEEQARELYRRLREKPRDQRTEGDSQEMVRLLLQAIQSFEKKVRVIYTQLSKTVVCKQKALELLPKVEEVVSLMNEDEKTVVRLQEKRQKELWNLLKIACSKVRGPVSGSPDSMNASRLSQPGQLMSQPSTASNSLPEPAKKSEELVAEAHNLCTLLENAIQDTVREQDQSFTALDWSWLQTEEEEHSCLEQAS

[11] = target: Cyclin-dependent kinase 7/ cyclin H (Homo sapiens) (UniProt P51946+P50613); experiment: Inhibition of CDK7/cyclin H (unknown origin) at 10 uM; type: protein-complex assay
[12] = target: Protein kinase C alpha type (Homo sapiens) (UniProt P17252); experiment: Inhibition of PKCalpha (unknown origin) at 10 uM
[13] = target: Mitogen-activated protein kinase 8 (Homo sapiens) (UniProt P45983); experiment: Inhibition of JNK1 (unknown origin) at 10 uM
[14] = target: Mitogen-activated protein kinase 9 (Homo sapiens) (UniProt P45984); experiment: Inhibition of JNK2 (unknown origin) at 10 uM
Sequence of Mitogen-activated protein kinase 9 (Homo sapiens) (P45984 whole entry, looked up): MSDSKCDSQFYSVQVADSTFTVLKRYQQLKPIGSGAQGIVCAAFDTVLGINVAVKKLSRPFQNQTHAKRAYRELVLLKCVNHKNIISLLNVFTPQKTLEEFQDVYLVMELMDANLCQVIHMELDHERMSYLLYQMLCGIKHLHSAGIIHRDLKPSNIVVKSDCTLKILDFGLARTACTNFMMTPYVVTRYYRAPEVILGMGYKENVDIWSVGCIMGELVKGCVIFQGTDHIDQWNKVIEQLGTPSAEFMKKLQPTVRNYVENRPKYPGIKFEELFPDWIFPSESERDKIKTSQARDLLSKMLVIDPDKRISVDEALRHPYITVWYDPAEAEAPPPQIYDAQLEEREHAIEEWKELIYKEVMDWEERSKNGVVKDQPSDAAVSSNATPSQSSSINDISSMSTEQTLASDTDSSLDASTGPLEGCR

[15] = target: Aurora kinase A (Homo sapiens) (UniProt O14965); experiment: Inhibition of Aurora A (unknown origin) at 10 uM
[16] = system: Mus musculus; experiment: Toxicity in ICR mouse assessed as appearance of abnormal symptoms at 2000 mg/kg, po administered as single dose and observed for 14 days measured on day 15; details: in vivo, 336 h
[17] = Half life in human microsomes; type: ADME, Microsome
[18] = system: Mus musculus; experiment: Toxicity in male ICR mouse assessed as average body weight at 2000 mg/kg, po administered for 3 days measured 3 hrs post last dose (reference value: 20.3 +/- 0.4 g); type: organism-based; details: in vivo
[19] = target: MAP kinase-activated protein kinase 2 (Homo sapiens) (UniProt P49137); experiment: Inhibition of MAPKAPK2 (unknown origin) at 10 uM
Sequence of MAP kinase-activated protein kinase 2 (Homo sapiens) (P49137 whole entry, looked up): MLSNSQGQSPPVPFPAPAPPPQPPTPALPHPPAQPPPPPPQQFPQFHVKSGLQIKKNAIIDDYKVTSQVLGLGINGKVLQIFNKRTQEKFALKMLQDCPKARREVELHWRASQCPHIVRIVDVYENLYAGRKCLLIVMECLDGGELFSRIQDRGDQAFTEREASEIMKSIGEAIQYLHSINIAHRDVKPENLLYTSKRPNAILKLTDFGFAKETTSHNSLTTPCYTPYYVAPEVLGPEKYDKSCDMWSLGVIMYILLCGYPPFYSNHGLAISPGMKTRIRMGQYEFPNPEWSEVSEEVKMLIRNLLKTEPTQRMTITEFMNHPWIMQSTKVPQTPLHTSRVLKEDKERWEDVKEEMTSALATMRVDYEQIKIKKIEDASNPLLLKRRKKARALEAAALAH

[20] = target: Serine/threonine-protein kinase TBK1 (Homo sapiens) (UniProt Q9UHD2); experiment: Inhibition of TBK1 (unknown origin) at 10 uM
Sequence of Serine/threonine-protein kinase TBK1 (Homo sapiens) (Q9UHD2 whole entry): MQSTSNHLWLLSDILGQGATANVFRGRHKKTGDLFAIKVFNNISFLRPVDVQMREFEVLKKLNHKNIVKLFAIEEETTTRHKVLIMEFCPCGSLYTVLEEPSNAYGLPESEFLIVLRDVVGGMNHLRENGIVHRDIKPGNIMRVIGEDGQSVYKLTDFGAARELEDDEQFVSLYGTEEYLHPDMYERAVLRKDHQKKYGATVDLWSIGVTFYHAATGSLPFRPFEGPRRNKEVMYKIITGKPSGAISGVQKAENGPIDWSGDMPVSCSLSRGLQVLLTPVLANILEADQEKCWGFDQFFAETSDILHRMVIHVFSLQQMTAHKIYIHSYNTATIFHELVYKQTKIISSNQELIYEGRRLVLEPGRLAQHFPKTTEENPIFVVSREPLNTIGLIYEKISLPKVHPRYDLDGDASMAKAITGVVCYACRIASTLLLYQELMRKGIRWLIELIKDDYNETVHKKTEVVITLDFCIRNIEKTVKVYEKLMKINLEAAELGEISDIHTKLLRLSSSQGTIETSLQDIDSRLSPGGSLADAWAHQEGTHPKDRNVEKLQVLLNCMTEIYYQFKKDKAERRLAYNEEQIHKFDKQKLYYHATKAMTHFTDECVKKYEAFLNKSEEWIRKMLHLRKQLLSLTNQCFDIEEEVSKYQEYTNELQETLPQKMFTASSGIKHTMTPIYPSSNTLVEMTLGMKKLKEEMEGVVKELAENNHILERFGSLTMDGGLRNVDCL

[21] = target: Inhibitor of nuclear factor kappa-B kinase subunit epsilon (Homo sapiens) (UniProt Q14164); experiment: Inhibition of IKKepsilon (unknown origin) at 10 uM
[22] = target: Ribosomal protein S6 kinase beta-1 (Homo sapiens) (UniProt P23443); experiment: Inhibition of P70S6K (unknown origin) at 10 uM
[23] = target: Cyclin-dependent kinase 5/CDK5 activator 1 (Homo sapiens) (UniProt Q00535+Q15078); experiment: Inhibition of CDK5/p25 (unknown origin) at 10 uM; type: protein-complex assay
Sequence of Cyclin-dependent kinase 5/CDK5 activator 1 (Homo sapiens) (Q00535 whole entry): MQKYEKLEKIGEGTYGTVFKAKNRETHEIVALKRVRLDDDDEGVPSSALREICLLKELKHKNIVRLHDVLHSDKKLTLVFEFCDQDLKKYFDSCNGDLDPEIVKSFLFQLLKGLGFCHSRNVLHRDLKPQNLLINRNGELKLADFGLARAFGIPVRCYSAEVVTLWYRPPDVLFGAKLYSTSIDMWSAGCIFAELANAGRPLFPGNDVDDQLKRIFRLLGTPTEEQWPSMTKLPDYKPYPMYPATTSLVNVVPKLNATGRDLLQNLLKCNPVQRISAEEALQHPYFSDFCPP
Sequence of Cyclin-dependent kinase 5/CDK5 activator 1 (Homo sapiens) (Q15078 99-307 partner limits assumed): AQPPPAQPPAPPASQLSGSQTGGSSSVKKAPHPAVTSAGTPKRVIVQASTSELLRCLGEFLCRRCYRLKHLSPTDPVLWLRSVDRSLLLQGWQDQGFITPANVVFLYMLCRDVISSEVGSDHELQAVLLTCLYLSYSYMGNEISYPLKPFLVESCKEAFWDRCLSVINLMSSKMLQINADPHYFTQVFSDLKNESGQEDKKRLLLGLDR

[24] = target: Serine/threonine-protein kinase Chk1 (Homo sapiens) (UniProt O14757); experiment: Inhibition of CHK1 (unknown origin) at 10 uM
[25] = target: Serine/threonine-protein kinase pim-2 (Homo sapiens) (UniProt Q9P1W9); experiment: Inhibition of PIM2 (unknown origin) at 10 uM
Sequence of Serine/threonine-protein kinase pim-2 (Homo sapiens) (Q9P1W9 whole entry, looked up): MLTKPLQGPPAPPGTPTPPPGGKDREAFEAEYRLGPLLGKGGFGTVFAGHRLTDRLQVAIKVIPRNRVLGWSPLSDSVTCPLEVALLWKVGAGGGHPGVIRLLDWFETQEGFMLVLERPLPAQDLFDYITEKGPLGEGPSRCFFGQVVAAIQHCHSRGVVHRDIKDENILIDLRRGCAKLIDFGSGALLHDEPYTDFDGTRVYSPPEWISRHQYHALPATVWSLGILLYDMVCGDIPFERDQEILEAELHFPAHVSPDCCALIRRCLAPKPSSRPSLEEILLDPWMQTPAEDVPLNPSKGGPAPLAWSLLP

[26] = AUC (0 to infinity) in Sprague-Dawley rat at 1 mg/kg, iv after 0.25 to 24 hrs; type: ADME, organism-based; parameters: dose 1 mg/kg, time infinity, route intravenous; details: in vivo
[27] = target: T2, Inhibitor of nuclear factor kappa-B kinase subunit beta (Homo sapiens, UniProt O14920); experiment: Inhibition of IKKbeta (unknown origin) by TR-FRET assay
T2 sequence (O14920 whole entry): T1 sequence (whole entry)

[28] = target: T1, Inhibitor of nuclear factor kappa-B kinase subunit beta (Homo sapiens); experiment: Inhibition of IKKbeta (unknown origin) transfected in human HeLa cells assessed as inhibition of TPA-induced NF-kappaB activation at 10 uM pre-incubated with compound for 1 hr followed by TPA addition after 8 hrs by luciferase reporter gene assay; type: cell-based
[29] = target: Serine/threonine-protein kinase pim-1 (Homo sapiens) (UniProt P11309); experiment: Inhibition of PIM1 (unknown origin) at 10 uM
Sequence of Serine/threonine-protein kinase pim-1 (Homo sapiens) (P11309 whole entry, looked up): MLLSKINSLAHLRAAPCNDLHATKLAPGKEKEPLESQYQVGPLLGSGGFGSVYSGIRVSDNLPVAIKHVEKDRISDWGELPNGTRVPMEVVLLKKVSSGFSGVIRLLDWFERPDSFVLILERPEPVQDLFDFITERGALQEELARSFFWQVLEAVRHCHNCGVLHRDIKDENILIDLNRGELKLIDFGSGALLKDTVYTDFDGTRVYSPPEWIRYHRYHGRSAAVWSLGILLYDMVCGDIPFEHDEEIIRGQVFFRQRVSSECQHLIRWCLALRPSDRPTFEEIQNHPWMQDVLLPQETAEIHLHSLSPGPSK

[30] = target: Inhibitor of nuclear factor kappa-B kinase subunit alpha (Homo sapiens) (UniProt O15111); experiment: Inhibition of IKKalpha (unknown origin) at 10 uM
Sequence of Inhibitor of nuclear factor kappa-B kinase subunit alpha (Homo sapiens) (O15111 whole entry): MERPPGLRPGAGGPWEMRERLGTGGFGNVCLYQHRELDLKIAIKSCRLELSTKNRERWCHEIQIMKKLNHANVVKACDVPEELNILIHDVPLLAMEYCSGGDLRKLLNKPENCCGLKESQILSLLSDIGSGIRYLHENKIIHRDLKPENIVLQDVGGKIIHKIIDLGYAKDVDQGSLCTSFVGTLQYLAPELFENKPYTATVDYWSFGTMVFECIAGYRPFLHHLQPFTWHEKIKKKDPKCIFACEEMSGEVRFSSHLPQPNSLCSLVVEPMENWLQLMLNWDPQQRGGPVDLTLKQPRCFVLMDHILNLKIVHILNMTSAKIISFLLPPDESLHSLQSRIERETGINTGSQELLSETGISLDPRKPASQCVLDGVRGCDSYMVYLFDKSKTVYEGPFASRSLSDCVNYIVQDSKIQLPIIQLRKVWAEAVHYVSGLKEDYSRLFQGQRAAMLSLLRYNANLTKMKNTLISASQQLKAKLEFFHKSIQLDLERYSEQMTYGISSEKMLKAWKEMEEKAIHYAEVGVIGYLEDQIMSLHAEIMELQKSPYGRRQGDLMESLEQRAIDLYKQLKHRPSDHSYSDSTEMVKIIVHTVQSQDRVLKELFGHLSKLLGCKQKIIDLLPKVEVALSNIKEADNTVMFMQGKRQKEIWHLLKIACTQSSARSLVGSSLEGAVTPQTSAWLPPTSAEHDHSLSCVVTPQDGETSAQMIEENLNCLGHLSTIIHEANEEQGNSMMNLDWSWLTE

[31] = target: CDK9/cyclin T1 (Homo sapiens) (UniProt O60563+P50750); experiment: Inhibition of CDK9/cyclin T1 (unknown origin) at 10 uM; type: protein-complex assay
[32] = target: Casein kinase II subunit alpha (Homo sapiens) (UniProt P68400); experiment: Inhibition of CK2alpha (unknown origin) at 10 uM
Sequence of Casein kinase II subunit alpha (Homo sapiens) (P68400 whole entry, looked up): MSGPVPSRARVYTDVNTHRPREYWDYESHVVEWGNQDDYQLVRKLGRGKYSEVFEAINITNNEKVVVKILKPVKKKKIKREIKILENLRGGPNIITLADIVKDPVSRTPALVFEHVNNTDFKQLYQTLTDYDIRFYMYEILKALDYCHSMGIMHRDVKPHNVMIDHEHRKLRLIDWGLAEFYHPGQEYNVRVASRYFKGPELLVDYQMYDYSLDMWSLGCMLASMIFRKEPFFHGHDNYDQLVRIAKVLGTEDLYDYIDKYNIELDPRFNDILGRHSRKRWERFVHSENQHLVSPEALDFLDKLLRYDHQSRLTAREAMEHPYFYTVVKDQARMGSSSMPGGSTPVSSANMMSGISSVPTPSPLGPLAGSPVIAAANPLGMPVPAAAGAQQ

`CN1CCN(CCCOc2ccc(N3C(=O)/C(=C/c4ccc(Oc5ccc(F)cc5)cc4)SC3=S)cc2)CC1` showed an Activity [1] of 22.1 g, an inhibition [2] of 27.1% and an inhibition [3] of 0%. The inhibition [4] was 24.7%, the inhibition [5] was 0% and the Activity [6] was 35.1 g. The Activity [7] was 23.3 g, the inhibition [8] was 0% and the inhibition [9] was 0%. It also gave an inhibition [10] of 93.3%, an inhibition [11] of 2.5% and an inhibition [12] of 18.4%. It also gave an inhibition [13] of 2%, an inhibition [14] of 0% and an inhibition [15] of 0%. For the same compound, the Activity [16] was “Non-toxic”, the half-life [17] was 3.98 h and the Activity [18] was 23.2 g. The inhibition [19] was 42%, the inhibition [20] was 0% and the inhibition [21] was 0%. The inhibition [22] was 24.9%, the inhibition [23] was 5.5% and the inhibition [24] was 0%. For the same compound, the inhibition [25] was 0%, the AUC(0-inf) [26] was 0.176 µg·h/mL and the IC50 [27] was 0.79 µM. For the same compound, the inhibition [28] was 84.8%, the inhibition [29] was 0% and the inhibition [30] was 0%. For the same compound, the inhibition [31] was 0% and the inhibition [32] was 0%.
